BindingDB's records for doi:10.1016/j.bmcl.2007.12.038 (St. Jude Children'S Research Hospital, 2008)

What was measured:
[1] = Binding affinity to GST tagged human beta 2 adrenergic receptor PDZ1 domain
[2] = Binding affinity to GST tagged human CFTR PDZ2 domain

SMILES | IC50 [1] [µM] | IC50 [2] [µM]
CCCCC(O)c1[nH]c2cc(C)c(C(=O)O)cc2c1CCc1ccccc1 (stereo unspecified) [2-(1-hydroxypentyl)-6-methyl-3-phenethyl-1H-indole-5-carboxylic acid] | 1540 | 160
Cc1cc2[nH]c(C(O)CCCC(=O)O)c(CCc3ccccc3)c2cc1C(=O)O (stereo unspecified) [2-(4-carboxy-1-hydroxybutyl)-6-methyl-3-phenethyl-1H-indole-5-carboxylic acid] | 777 | 330
CCCCCc1c(CO)c2cc(C)c(C(=O)O)cc2n1CCc1ccccc1 [3-(hydroxymethyl)-5-methyl-2-pentyl-1-phenethyl-1H-indole-6-carboxylic acid] | 280 | 380
